Results: patent publication US8481494B2, “Compounds for the treatment of diseases related to protein misfolding” (priority 2009, dated 2013)

Biological target: T1, Aβ(1-42) (Homo sapiens, UniProt P05067)
T1 construct: Aβ(1-42)-peptide (Bachem, Bubendorf, Germany) was prepared in HFIP; purchased Bachem, Bubendorf
Assay: ThT kinetics of Aβ aggregation
Assay type: biochemical
Conditions: in words
Procedure: The influence of the new β-sheet ligands, based on the aminopyrazole-trimer, on the Aβ self-assembly process was first studied kinetically. Reference curves were obtained independently for both Aβ (1-40) and Aβ (1-42). In a typical experiment, one third (⅓) equivalent of thioflavine T was added to a solution of monomeric Aβ in PBS buffer, prepared in HFIP. The increase in ThT fluorescence was monitored over time, as a measure of the total amount of accumulating aggregates. […] Both peptides reached a plateau after ˜3 days, which was set as standard time period for all consecutive aggregation assays.
Care was taken to eliminate fluorescence changes induced by any other events than the aggregation process; thus each ligand was separately shown to be non-fluorescent and not to alter Tht fluorescence in mixtures. Controls with pure Aβ were identical in peptide concentration as well as buffer and solvent composition. […] Aβ (1-42): Much more impressive is the inhibitory influence of the trimeric ligands on the aggregation kinetics of the full-length Aβ (1-42). […]
Then, a mixture of 9.5 μL ThT (62.7 μM stock solution), 6 μL PBS and 38.1 μL water (bidest.) was pipetted. […] Sixty μL of aggregation mixtures were pipetted in a 384-well plate and the fluorescence intensity (exc. at 446 nm, em. at 490 nm) was measured every hour at 37° C. […]

T1 sequence (P05067 672-713 limits assumed): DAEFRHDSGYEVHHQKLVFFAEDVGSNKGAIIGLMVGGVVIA

COC(=O)C(CCCCN)NC(=O)c1cc(NC(=O)c2cc(NC(=O)c3cc([N+](=O)[O-])n[nH]3)n[nH]2)n[nH]1.O=C(O)C(F)(F)F (stereo not shown) [Trimer-Lys-OMe]
effect on Aβ aggregation kinetics: accelerates Aβ aggregation
